Where “and” joins values, the source holds several entries; their conditions need not be identical. Equal values may be shown once.
Assay: Pharmacokinetic evaluation of liquid bevirimat dosage forms, oral gavage, male Cynomolgus monkeys
Protocol: Six male Cynomolgus monkeys having an initial body weight of about 3.5 to about 4.5 kg are allowed 7 days to acclimate to their individual housing units. Monkeys are supplied with water and a commercial diet ad libitum prior to the study initiation. Food is withheld from the monkeys for a minimum of twelve hours before the study and during the study until four hours postdose when food is returned. Water is supplied ad libitum.
Test formulations are administered to the monkeys at time 0 on appropriate days. Test formulations will be dosed orally via oral gavage or intravenously.
Samples are drawn at the frequencies indicated below. Each blood sample (0.5 mL) is collected from the monkey's saphenous vein via a butterfly catheter and placed into a chilled polypropylene tube containing sodium heparin as the anticoagulant. Blood samples are centrifuged at a temperature of 4° C. at a speed of 3,000 rpm for 15 minutes. All samples are maintained chilled throughout processing. Plasma is collected after centrifugation, pipetted into a 2-mL polypropylene microtube, and frozen on dry-ice pending analytical evaluation.

[1] = 12.5 mg FAE/mL in 10% HPβCD, 50 mg FAE/monkey oral gavage, monkeys 186,116,120,AVG
[2] = 12.5 mg FAE/mL in 15% EtOH:0.5% TPGS:15% PG:5% Glycerin, 0.2% Povidone K90, 50 mg FAE/monkey oral gavage, monkeys 117,118,119,AVG
[3] = 12.5 mg FAE/mL in 15% Ethanol, 30% PG, 10% Glycerin, 50 mg FAE oral gavage, monkeys 117,118,119,AVG
[4] = 12.5 mg FAE/mL in 40% PG, 20% Glycerin, 0.25% Tween80, 0.2% Povidone K15, 50 mg FAE oral gavage, monkeys 186,116,120,AVG
[5] = 12.5 mg FAE/mL in 40% PG, 20% Glycerin, 1% TPGS, 0.25% Tween80, 0.2% Povidone K15, 50 mg FAE/monkey oral gavage, monkeys 117,118,119,AVG
[6] = 12.5 mg FAE/mL in 40% PG, 20% glycerin, 5% Vitamin E TPGS, 0.25% Tween80, 0.20% Plasdone C15, 10 mM sodium phosphate pH 8.0, 200 mg/monkey (50.0 mg/kg) oral gavage, monkeys 181,182,AVG
[7] = 50 mg FAE/mL in 40% EtOH:40% PG:20% Glycerol, 50 mg FAE/monkey oral gavage, monkeys 117,118,119,AVG
[8] = male, cynomolgus monkey, in vivo, 50 mg/kg, pH 8
[9] = male, cynomolgus monkey, in vivo, po, 50 mg FAE/monkey

Structure (SMILES): C=C(C)[C@@H]1CC[C@]2(C(=O)O)CC[C@]3(C)[C@H](CC[C@@H]4[C@@]5(C)CC[C@H](OC(=O)CC(C)(C)C(=O)O)C(C)(C)[C@@H]5CC[C@]43C)[C@@H]12 [Bevirimat, 3-O-(3′,3′-dimethylsuccinyl)betulinic acid]
- AUCall [1]: 392.275 µg·h/mL
- Cmax [1]: 56.4 µg/mL
- Dnzed AUCall [1]: 38150 ng·h/mL/mg/kg
- t1/2 [1]: 7.0 h and 11.4 h and 9.4 h
- t1/2 (12.5 mg FAE/mL in 15% EtOH:0.5% TPGS:15% PG:5% Glycerin, 50 mg FAE/monkey oral gavage, monkeys 117,118,119,AVG): 11.3 h and 11.5 h and 11.6 h
- AUCall [2]: 270.194 µg·h/mL and 344.629 µg·h/mL and 367.461 µg·h/mL
- Cmax [2]: 65.6 µg/mL and 52.8 µg/mL and 56.567 µg/mL
- t1/2 [2]: 14.5 h and 8.7 h and 11.8 h
- Cmax [3]: 57.2 µg/mL and 97.4 µg/mL and 72.9 µg/mL
- t1/2 [3]: 10.4 h and 9.0 h and 9.4 h
- Dnzed AUCall [4]: 17281 ng·h/mL/mg/kg and 15596 ng·h/mL/mg/kg
- t1/2 [4]: 8.1 h and 10.2 h and 8.7 h
- t1/2 (12.5 mg FAE/mL in 40% PG, 20% Glycerin, 1% TPGS, 0.25% Tween80, 50 mg FAE/monkey oral gavage, monkeys 186,116,120,AVG): 9.9 h and 11.1 h and 10.3 h
- Cmax [5]: 84.8 µg/mL and 77.2 µg/mL and 85.1 µg/mL
- t1/2 [5]: 7.9 h and 6.4 h and 8.2 h
- AUCall [6]: 1681.058 µg·h/mL
- Cmax [6]: 174 µg/mL and 199.5 µg/mL
- Dnzed AUCall [6]: 33621 ng·h/mL/mg/kg
- t1/2 [6]: 10.2 h and 9.2 h
- t1/2 (25 mg/mL in 30% EtOH:1% TPGS:30% PG:10% Glycerin, 50 mg FAE/monkey oral gavage, monkeys 117,118,119,AVG): 17.8 h and 9.0 h and 12.5 h
- Cmax [7]: 24.9 µg/mL and 33.1 µg/mL and 27.933 µg/mL
- t1/2 [7]: 7.8 h and 8.5 h
- t1/2 (50 mg FAE/mL in 40% PG:20% Glycerin:1% TPGS:5% Tween 80 in SWFI, 50 mg FAE/monkey oral gavage, monkeys 117,118,119,AVG): 11.8 h and 14.6 h and 12.8 h
- t1/2 (10% HPβCD, 50 mg FAE/monkey oral gavage, monkeys 117,118,119,AVG): 10.2 h and 11.0 h and 10.4 h
- bioavailability (male, cynomolgus monkey, in vivo): ~55%
- concentration at 1 hr [8]: 108 µg/mL
- concentration at 2 hr [8]: 225 µg/mL
- concentration at 4 hr [8]: 163 µg/mL
- concentration at 6 hr [8]: 107 µg/mL
- concentration at 8 hr [8]: 70.3 µg/mL
- concentration at 12 hr [8]: 47.5 µg/mL
- concentration at 0.25 hr (male, cynomolgus monkey, in vivo, po, 50 mg FAE): 3.06 µg/mL
- concentration at 0.25 hr (male, cynomolgus monkey, in vivo, po, 50 mg FAE, Plasma concentration, 0.25 hr, 12.5 mg FAE/mL in 15% Ethanol, 30% PG, 10% Glycerin, 50 mg FAE oral gavage, monkeys 117,118,119,AVG, BLOQ=below 50 ng/mL): 0.066 µg/mL
- concentration at 4 hr (male, cynomolgus monkey, in vivo, po, 50 mg FAE, Plasma concentration, 4.0 hr, 12.5 mg FAE/mL in 15% Ethanol, 30% PG, 10% Glycerin, 50 mg FAE oral gavage, monkeys 117,118,119,AVG): 46 µg/mL
- concentration at 6 hr (male, cynomolgus monkey, in vivo, po, 50 mg FAE, Plasma concentration, 6.0 hr, 12.5 mg FAE/mL in 15% Ethanol, 30% PG, 10% Glycerin, 50 mg FAE oral gavage, monkeys 117,118,119,AVG): 44.7 µg/mL
- concentration at 24 hr (male, cynomolgus monkey, in vivo, po, 50 mg FAE, Plasma concentration, 24 hr, 12.5 mg FAE/mL in 40% PG, 20% Glycerin, 0.25% Tween80, 0.2% Povidone K15, 50 mg FAE oral gavage, monkeys 186,116,120,AVG): 0.434 µg/mL
- concentration at 48 hr (male, cynomolgus monkey, in vivo, po, 50 mg FAE, Plasma concentration, 48 hr, 12.5 mg FAE/mL in 40% PG, 20% Glycerin, 0.25% Tween80, 0.2% Povidone K15, 50 mg FAE oral gavage, monkeys 186,116,120,AVG): 0.0603 µg/mL
- concentration at 72 hr (male, cynomolgus monkey, in vivo, po, 50 mg FAE, Plasma concentration, 72 hr, 12.5 mg FAE/mL in 15% Ethanol, 30% PG, 10% Glycerin, 50 mg FAE oral gavage, monkeys 117,118,119,AVG, BLOQ=below 50 ng/mL): 0.179 µg/mL
- concentration at 1 hr [9]: 85.2 µg/mL
- concentration at 2 hr [9]: 93.3 µg/mL
- concentration at 4 hr [9]: 62.7 µg/mL
- concentration at 0.25 hr (male, cynomolgus monkey, in vivo, po, 50 mg FAE/monkey, Plasma concentration, 0.25 hr, 25 mg/mL in 30% EtOH:1% TPGS:30% PG:10% Glycerin, 50 mg FAE/monkey oral gavage, monkeys 117,118,119,AVG, BLOQ=below 50 ng/mL): 0.147 µg/mL
- concentration at 0.25 hr (male, cynomolgus monkey, in vivo, po, 50 mg FAE/monkey, Plasma concentration, 0.25 hr, 50 mg FAE/mL in 40% EtOH:40% PG:20% Glycerol, 50 mg FAE/monkey oral gavage, monkeys 117,118,119,AVG, BLOQ=below 50 ng/mL): 0.0755 µg/mL
- concentration at 0.5 hr (male, cynomolgus monkey, in vivo, po, 50 mg FAE/monkey, Plasma concentration, 0.50 hr, 12.5 mg FAE/mL in 40% PG, 20% Glycerin, 1% TPGS, 0.25% Tween80, 0.2% NaCMC, 50 mg FAE/monkey oral gavage, monkeys 117,118,119,AVG): 12.5 µg/mL
- concentration at 1 hr (male, cynomolgus monkey, in vivo, po, 50 mg FAE/monkey, Plasma concentration, 1.0 hr, 12.5 mg FAE/mL in 10% HPβCD, 50 mg FAE/monkey oral gavage, monkeys 186,116,120,AVG): 56.4 µg/mL
- concentration at 1 hr (male, cynomolgus monkey, in vivo, po, 50 mg FAE/monkey, Plasma concentration, 1.0 hr, 12.5 mg FAE/mL in 40% PG, 20% Glycerin, 1% TPGS, 0.25% Tween80, 50 mg FAE/monkey oral gavage, monkeys 186,116,120,AVG): 65.5 µg/mL
- concentration at 1 hr (male, cynomolgus monkey, in vivo, po, 50 mg FAE/monkey, Plasma concentration, 1.0 hr, 50 mg FAE/mL in 40% EtOH:40% PG:20% Glycerol, 50 mg FAE/monkey oral gavage, monkeys 117,118,119,AVG): 19.2 µg/mL

From US20100216751A1 (priority 2007, published 2010)
